Test results: patent publication US20260049078A1, “DIFLUORO- AND TRIFLUORO-ACETYL HYDRAZIDES AS SELECTIVE HDAC6 INHIBITORS” (ITALFARMACO S.P.A., priority 2022, published 2026)

What was measured:
recombinant human HDAC6 = recombinant human HDAC6 (Homo sapiens (Human), UniProt Q9UBN7); assay: Enzyme inhibitory activity assay on HDAC6; format: biochemical; conditions: 30 minutes preincubation at 25° C.
Experimental: (§1) For each test compound, 100× concentrated DMSO solutions at 8 doses were prepared and then diluted in assay buffer (25 mM Tris-HCl, pH 8, 130 mM NaCl, 0.05% Tween-20, 10% Glycerol) to obtain 5× concentrated solutions in relation to the final concentrations (typical final concentration range—6.4-200000 nM or 0.18-50000 nM, final DMSO content—1%). Then 10 μL solution of each test compound concentration were placed on a 96-well plate in triplicate and 15 μL of 3.33× concentrated enzyme solution in the assay buffer containing 3.33× concentrated BSA (final BSA concentration 1 mg/mL) and, in case of HDAC6, 3.33× concentrated TCEP (final TCEP concentration—200 μM) were added to each well. After a period of preincubation at 25° C. (30 minutes for HDAC6 and 120 minutes for HDAC1), 25 μL of solution containing the substrate were added. As substrate, FLUOR DE LYS® deacetylase substrate (Enzo Life Sciences, cat: BML-KI104, FdL), FLUOR DE LYS®-Green substrate (Enzo Life Sciences, cat: BML-KI572, FdL_G) or Boc-Lys(Tfa)-AMC (Bachem, cat: 4060676.005, Tfal)—2× concentrated solution in assay buffer were used. Following a reaction period (30 minutes at 25° C.), 50 μL of the development solution consisting of concentrate FLUOR DE LYS® developer I (Enzo Life Sciences, ca: BML-KI105), diluted 200 times in buffer (50 mM Tris-HCl, pH 8, 137 mM NaCl, 2.7 mM KCl, 1 mM MgCl2) plus 2 μM TSA was added and, after 25 minutes at room temperature in the dark, using the Victor 1420 Multilabel Counter Perkin Elmer Wallac instrument, the fluorescence reading was carried out (excitation/emission: 485/535 nM—Fluor de Lys Green, 355/460 nM—Tfal, Fluor de Lys).
(§2) Enzymatic activity on recombinant human HDAC6 and HDAC1 was evaluated (Table 2) for each synthesized compound.

recombinant human HDAC1 = recombinant human HDAC1 (Homo sapiens (Human), UniProt Q13547); assay: Enzyme inhibitory activity assay on HDAC1; format: biochemical; conditions: 120 minutes preincubation at 25° C.
Sequence of recombinant human HDAC1 (Q13547 whole entry): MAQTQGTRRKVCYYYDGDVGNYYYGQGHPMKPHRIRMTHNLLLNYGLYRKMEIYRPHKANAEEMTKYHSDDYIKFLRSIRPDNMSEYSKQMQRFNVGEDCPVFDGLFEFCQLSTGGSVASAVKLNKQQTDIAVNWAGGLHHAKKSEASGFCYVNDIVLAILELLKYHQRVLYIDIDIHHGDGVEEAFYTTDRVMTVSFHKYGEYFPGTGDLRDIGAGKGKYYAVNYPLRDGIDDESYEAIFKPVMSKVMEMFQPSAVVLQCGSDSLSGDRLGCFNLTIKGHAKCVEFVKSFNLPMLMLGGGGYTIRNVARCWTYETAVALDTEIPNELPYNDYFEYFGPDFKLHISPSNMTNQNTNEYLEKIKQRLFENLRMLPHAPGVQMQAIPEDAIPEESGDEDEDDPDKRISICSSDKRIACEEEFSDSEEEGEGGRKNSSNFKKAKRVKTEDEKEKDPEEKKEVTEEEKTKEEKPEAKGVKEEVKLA
Experimental: as §1, §2

[1] = system: human B cell precursor leukemia 697; assay: In vitro α-tubulin acetylation in 697 cell line; format: cell-based; conditions: Homo sapiens, B-cell, 16 h; read-out: TubAc 697 cells EC50
Experimental: The in vitro α-tubulin acetylation was evaluated on human B cell precursor leukemia 697.
The 697 cells were maintained in RPMI Medium 1640 (Gibco, cat: 21875-034) supplemented with 10 mM HEPES (Gibco, cat: 15630-080), Pen-Strep (Penicillin 100 U/ml, Streptomycin 100 μg/ml, Gibco, cat: 15140-122) and 10% fetal bovine serum (Gibco, cat: 10270-106).
The cells were plated in 12-well plates (Costar, cat: 3512) at the density of 5.5×10^5 cells/ml.
Serial dilutions of test compounds in DMSO were prepared using 20 mM stock solutions to obtain 8 doses 200× concentrated in respect to final doses (2.7-100000 nM). Then the DMSO solutions were diluted 10× in culture medium to obtain 20× concentrated solutions which were used for cells treatment (125 μl of medium solutions were added to 2.375 ml of cells suspension). The final DMSO content was set as 0.5%. The plates were incubated at 37° C., 5% CO2 for 16 hours.
At the end of the incubation period, the cells were harvested and centrifuged for 5 minutes at 200×g and washed with 0.9% NaCl at 4° C. The resulting pellet was treated for 30 minutes at 4° C. with 100 μl Complete Lysis-M buffer containing protease inhibitors (Complete Lysis-M Roche+Complete Tablets, Mini Easypack, cat: 4719956001) and phosphatase inhibitor cocktails (PhosStop Easypack, Roche, cat: 4906837001) and then centrifuged 10 minutes at 18213×g. The protein concentration in each supernatant was determined using BCA Protein Assay Kit (Pierce, cat: 23227). The samples were diluted in PBS 1× to obtain 2 μg/ml concentration and coated in MaxiSorp 96-well plates (Nunc, cat: 442404). The plates were incubated overnight at room temperature.
Plates were washed twice with Wash Buffer (PBS 1×+0.005% tween 20) and saturated for 1 hour at room temperature with 300 μL of 1×PBS containing 10% FBS. After washing twice with Wash Buffer, the plates were incubated for 2 hours at room temperature in the presence of 100 μl/well either anti-acetylated-α-tubulin antibody (Monoclonal Anti-Tubulin, Acetylated antibody produced in mouse, Sigma-Aldrich, cat: T6793) or total anti-α-tubulin antibody (Monoclonal Anti-α-Tubulin produced in mouse, Sigma-Aldrich, cat: T6074) diluted 1:1000 in 1×PBS containing 10% FBS. Following 5 washing cycles with Wash Buffer the secondary antibody conjugated with the enzyme HRP (Goat anti-Mouse IgG, IgM, IgA (H+L), stock concentration 0.5 mg/ml, Thermo Fisher Scientific, cat: A10668), diluted 1:1000 in 1×PBS+10% FBS was added at the volume of 100 μl/well. After two hours of incubation at room temperature the plates were washed 4 times with Wash Buffer, then 100 μl/well of TMB substrate (TMB substrate kit, Thermo Fisher Scientific, cat: 34021) was added for 10 minutes at room temperature in the dark. The reaction was stopped by adding 50 μl of 2M H2SO4. The plates were read in BioTek Synergy H1 multimode microplate reader at a wavelength of 450 nm.
The measured absorbance was corrected by subtracting the mean of blank values (samples without the primary antibody). The absorbance ratios of acetyl to total tubulin assays were calculated and normalized to the reference compound (positive control) 4 parameter logistic curve, where 0% is the fitted bottom and 100% is the fitted top of the curve. The results are expressed as relative EC50.

HDAC6 = assay: Kinetic of prodrug disappearing when incubated with HDAC6 (LC-HRMS); format: biochemical; conditions: HDAC6 1 μM, 5 μM compound, 25° C.; for half-life at 5 µM: HDAC6 enzyme in assay buffer, read-out: T1/2 of prodrug disappearing
Experimental: The LC-HRMS analysis was carried out using a Vanquish Flex UHPLC (Thermo Fisher Scientific) and a high-resolution mass spectrometer Orbitrap QExactive Focus (Thermo Fisher Scientific), equipped with a Heated Electrospray Ionization, operated in positive mode. A Full Scan analysis was set in the m/z range 50-500 amu. A XSelect HSS T3 50×2.1 mm, 2.5 μm chromatographic column (Waters) was used. Mobile phase A consisted of 0.1% formic acid in water and mobile phase B in 0.1% formic acid in acetonitrile. The flow rate was set to 0.5 mL/min, with a gradient program from 3 to 20% B in 3 minutes.

Sequence of recombinant human HDAC6 (Q9UBN7 whole entry): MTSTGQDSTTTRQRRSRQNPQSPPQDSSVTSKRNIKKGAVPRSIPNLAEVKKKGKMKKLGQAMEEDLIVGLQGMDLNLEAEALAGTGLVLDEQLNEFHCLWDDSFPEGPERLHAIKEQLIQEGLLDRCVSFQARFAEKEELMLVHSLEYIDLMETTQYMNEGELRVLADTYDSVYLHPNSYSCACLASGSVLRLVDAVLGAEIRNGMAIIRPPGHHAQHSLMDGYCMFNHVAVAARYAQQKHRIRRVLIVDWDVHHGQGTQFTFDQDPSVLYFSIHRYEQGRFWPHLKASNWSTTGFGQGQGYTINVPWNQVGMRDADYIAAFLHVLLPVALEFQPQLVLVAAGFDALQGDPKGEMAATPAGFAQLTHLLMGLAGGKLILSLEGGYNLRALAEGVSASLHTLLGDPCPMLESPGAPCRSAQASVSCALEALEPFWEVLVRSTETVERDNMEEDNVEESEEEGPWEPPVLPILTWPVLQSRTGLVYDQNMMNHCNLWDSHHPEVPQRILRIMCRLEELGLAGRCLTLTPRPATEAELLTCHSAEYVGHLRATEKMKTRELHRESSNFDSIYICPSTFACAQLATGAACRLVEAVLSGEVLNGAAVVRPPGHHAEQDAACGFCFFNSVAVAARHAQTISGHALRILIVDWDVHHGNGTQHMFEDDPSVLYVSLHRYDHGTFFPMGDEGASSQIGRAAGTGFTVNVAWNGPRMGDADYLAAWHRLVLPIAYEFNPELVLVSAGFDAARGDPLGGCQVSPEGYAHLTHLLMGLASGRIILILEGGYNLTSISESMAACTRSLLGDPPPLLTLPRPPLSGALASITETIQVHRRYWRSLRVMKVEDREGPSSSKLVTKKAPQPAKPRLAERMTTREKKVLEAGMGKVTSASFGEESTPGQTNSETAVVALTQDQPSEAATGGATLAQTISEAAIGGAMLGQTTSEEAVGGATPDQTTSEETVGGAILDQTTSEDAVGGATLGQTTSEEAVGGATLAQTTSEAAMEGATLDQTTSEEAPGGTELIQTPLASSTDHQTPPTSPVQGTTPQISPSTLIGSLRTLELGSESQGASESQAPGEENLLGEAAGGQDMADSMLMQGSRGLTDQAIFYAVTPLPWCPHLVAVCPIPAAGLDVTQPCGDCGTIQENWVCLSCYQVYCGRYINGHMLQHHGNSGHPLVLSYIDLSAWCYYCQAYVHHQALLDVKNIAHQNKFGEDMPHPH

Compound Cc1ccc(-c2cn(Cc3ccc(-c4nnc(C(F)F)o4)cn3)nn2)cc1 [Compound 8-A] has an IC50 (recombinant human HDAC6) of 65 nM, an IC50 (recombinant human HDAC1) greater than 100000 nM and an EC50 [1] of 419 nM.

Compound Cc1cccc(-c2cn(Cc3ccc(-c4nnc(C(F)F)o4)cn3)nn2)c1 [Compound 9-A] has an IC50 (recombinant human HDAC6) of 40 nM, an IC50 (recombinant human HDAC1) greater than 100000 nM and an EC50 [1] of 385 nM.

Compound CC(=O)Nc1cccc(-c2cn(Cc3ccc(-c4nnc(C(F)F)o4)cc3F)nn2)c1 [Compound 12-A] has an IC50 (recombinant human HDAC6) of 57 nM, an IC50 (recombinant human HDAC1) greater than 100000 nM and an EC50 [1] of 346 nM.

Fc1cc(-c2nnc(C(F)F)o2)cnc1Cn1cc(-c2ccccn2)nn1 [Compound 15-A] was tested, and the IC50 (recombinant human HDAC6) was 100 nM and the IC50 (recombinant human HDAC1) was greater than 100000 nM.

FC(F)c1nnc(-c2ccc(Cn3nnc(-c4ccccc4)n3)nc2)o1 [Compound 16-A] gave an IC50 (recombinant human HDAC6) of 40 nM, an IC50 (recombinant human HDAC1) greater than 100000 nM and an EC50 [1] of 1090 nM.

In the case of FC(F)c1nnc(-c2ccc(Cn3nnc(-c4cccs4)n3)nc2)o1 [Compound 17-A], the IC50 (recombinant human HDAC6) is reported as 41 nM, the IC50 (recombinant human HDAC1) is reported as greater than 100000 nM and the EC50 [1] is reported as 648 nM.

Compound Fc1cccc(-c2cn(Cc3ccc(-c4nnc(C(F)F)o4)cn3)nn2)c1 [Compound 18-A] has an IC50 (recombinant human HDAC6) of 56 nM, an IC50 (recombinant human HDAC1) greater than 100000 nM and an EC50 [1] of 582 nM.

FC(F)c1nnc(-c2ccc(Cn3cc(-c4cccs4)nn3)nc2)o1 [Compound 19-A] gave an IC50 (recombinant human HDAC6) of 31 nM, an IC50 (recombinant human HDAC1) greater than 100000 nM and an EC50 [1] of 579 nM.

FC(F)c1nnc(-c2ccc(Cn3cc(-c4ccc5[nH]ccc5c4)nn3)nc2)o1 [Compound 27-A] showed an IC50 (recombinant human HDAC6) of 15 nM, an IC50 (recombinant human HDAC1) greater than 100000 nM and an EC50 [1] of 119 nM.

CC(c1ccc(-c2nnc(C(F)F)o2)cc1F)n1cc(-c2ccc3nc(N)sc3c2)nn1 (stereo not drawn) [Compound 30-A, 6-(1-(1-(4-(5-(difluoromethyl)-1,3,4-oxadiazol-2-yl)-2-fluorophenyl)ethyl)-1H-1,2,3-triazol-4-yl)benzo[d]thiazol-2-amine] showed an EC50 [1] of 1390 nM.

Work on Nc1nc2ccc(-c3cn(Cc4ccc(-c5nnc(C(F)F)o5)c(Cl)c4)nn3)cc2s1 [Compound 31-A] yielded a half-life at 5 µM (HDAC6) of 129 min.

FC(F)c1nnc(-c2ccc(Cn3cc(-c4cccc5[nH]ncc45)nn3)nc2)o1 [Compound 34-A] was tested, and the IC50 (recombinant human HDAC6) was 20 nM, the IC50 (recombinant human HDAC1) was greater than 100000 nM and the EC50 [1] was 167 nM.

With Fc1cc(-c2nnc(C(F)F)o2)ccc1Cn1cc(-c2cccc3[nH]ccc23)nn1 [Compound 36-A] the IC50 (recombinant human HDAC6) was 54 nM, the IC50 (recombinant human HDAC1) was greater than 100000 nM and the EC50 [1] was 167 nM.

Compound Fc1cc(-c2nnc(C(F)F)o2)cnc1Cn1cc(-c2cccc3[nH]ccc23)nn1 [Compound 40-A] has an IC50 (recombinant human HDAC6) of 44 nM, an IC50 (recombinant human HDAC1) greater than 100000 nM and an EC50 [1] of 849 nM.

Nc1ccc(-c2cn(Cc3c(F)cc(-c4nnc(C(F)(F)F)o4)cc3F)nn2)cn1 [Compound 42-A] showed a half-life at 5 µM (HDAC6) of 40.5 min.

In the case of Nc1ccc(-c2cn(Cc3ccc(-c4nnc(C(F)(F)F)o4)cc3F)nn2)cn1 [Compound 43-A], the half-life at 5 µM (HDAC6) is reported as 23.1 min.

With Nc1ccc(-c2cn(Cc3ccc(-c4nnc(C(F)(F)F)o4)c(F)c3)nn2)cn1 [Compound 44-A] the half-life at 5 µM (HDAC6) was 11.3 min.

Nc1ccc(-c2cn(Cc3ccc(-c4nnc(C(F)F)o4)cc3)nn2)cn1 [Compound 45-A] was tested, and the “percentage of compound concentration (prodrug remaining)” value (“percentage … (prodrug remaining)” below) (HDAC6; time 0 min) was 100.00%, the “percentage … (prodrug remaining)” value (HDAC6; time 30 min) was 79.9% and the “percentage … (prodrug remaining)” value (HDAC6; time 60 min) was 73.7%. For the same compound, the “percentage … (prodrug remaining)” value (HDAC6; time 120 min) was 47.8%, the “percentage … (prodrug remaining)” value (HDAC6; time 240 min) was 22.6% and the “percentage … (prodrug remaining)” value (HDAC6; time 360 min) was 11.6%. The “percentage … (prodrug remaining)” value (HDAC6; time 480 min) was 5.2%, the half-life at 5 µM (HDAC6) was 113 min and the IC50 (recombinant human HDAC6) was 26 nM. It also gave an IC50 (recombinant human HDAC1) greater than 100000 nM and an EC50 [1] of 664 nM.

With Nc1ccc(-c2cn(Cc3c(F)cc(-c4nnc(C(F)F)o4)cc3F)nn2)cn1 [Compound 46-A] the “percentage … (prodrug remaining)” value (HDAC6; time 0 min) was 100.00%, the “percentage … (prodrug remaining)” value (HDAC6; time 30 min) was 42.4% and the “percentage … (prodrug remaining)” value (HDAC6; time 60 min) was 17.4%. For the same compound, the “percentage … (prodrug remaining)” value (HDAC6; time 120 min) was 2.7%, the “percentage … (prodrug remaining)” value (HDAC6; time 240 min) was 0.0% and the “percentage … (prodrug remaining)” value (HDAC6; time 360 min) was 0.0%. The “percentage … (prodrug remaining)” value (HDAC6; time 480 min) was 0.0%, the half-life at 5 µM (HDAC6) was 22.9 min and the IC50 (recombinant human HDAC1) was greater than 100000 nM. For the same compound, the EC50 [1] was 788 nM.

With Nc1ccc(-c2cn(Cc3ccc(-c4nnc(C(F)F)o4)cc3F)nn2)cn1 [Compound 47-A] the “percentage … (prodrug remaining)” value (HDAC6; time 0 min) was 100.00%, the “percentage … (prodrug remaining)” value (HDAC6; time 30 min) was 53.6% and the “percentage … (prodrug remaining)” value (HDAC6; time 60 min) was 29.7%. For the same compound, the “percentage … (prodrug remaining)” value (HDAC6; time 120 min) was 7.4%, the “percentage … (prodrug remaining)” value (HDAC6; time 240 min) was 0.4% and the “percentage … (prodrug remaining)” value (HDAC6; time 360 min) was 0.0%. The “percentage … (prodrug remaining)” value (HDAC6; time 480 min) was 0.0%, the half-life at 5 µM (HDAC6) was 29.3 min and the IC50 (recombinant human HDAC1) was greater than 100000 nM. The EC50 [1] was 871 nM.

Compound Nc1ccc(-c2cn(Cc3ccc(-c4nnc(C(F)F)o4)s3)nn2)cn1 [Compound 49-A] has an EC50 [1] of 29 nM.
